Results: article PMC7023239, “Evaluation of the Biodistribution of Serinolamide-Derivatized C60 Fullerene” (Nanomaterials, 2020)

Key:
[1] = PET/CT biodistribution in mice; format: in vivo, male nude mice
Procedure: PET and CT scans were performed using a small animal Albira PET/SPECT/CT scanner (Bruker Corporation, Billerica, MA, USA). PET images were analyzed using PMOD Version 3.505 (PMOD Technologies Ltd., Zürich, Switzerland). PET/CT maximum intensity projections were constructed using Inveon Research Workplace (Siemens Medical Solutions USA, Inc., Malvern, PA, USA). Statistical analysis was performed on GraphPad Prism 8 (GraphPad Software, San Diego, CA, USA).
PET Image Acquisition: All mice were manipulated in accordance to the MD Anderson Cancer Center’s IACUC guidelines. Mice were anesthetized with 2% isoflurane using oxygen as a carrier. For both C60-[^64Cu]Cu(NOTA) and [^64Cu]Cu(NOTA), 6 male nude mice were injected on the bed with ~200 μCi of activity in 150 μL of saline through a tail vein catheter. At the start of injection, a 20-min dynamic PET scan was acquired using the Albira PET/SPECT/CT scanner with a 15 cm field of view (FOV). The actual injected dose was calculated by measuring the pre- and post-injection activity in the syringe using a CRC-15R dose calibrator (Capintec, Inc., Florham Park, NJ, USA). The data were binned into 20-s time frames for the first 5 min, 60-s frames for the next 5 min, and 5-min frames for the next 10 min. Static PET images were then recorded at 3 h and 24 h post-injection (p.i.) for 10 min. A static PET image at 48 h p.i. was recorded for 20 min for C60-[^64Cu]Cu(NOTA) only. Following all PET scans, two 3 min CT scans were performed to cover the whole mouse body with a total FOV of 12.6 cm (400 μA, 45 kV, 250 projections).
The PET images were reconstructed using the Maximum Likelihood Expectation Maximization method with 12 iterations. The CT images were reconstructed using the Filtered Back Projection method. Scatter, randoms, decay, and attenuation corrections were applied through the Albira software. Volumes-of-interest (VOIs) were drawn for the major organs on the decay-corrected PET images using PMOD, and injected doses were used to calculate percent of injected dose per cubic centimeter of tissue (%ID/cc). […]

[2] = Two-phase decay model of heart TAC (blood pharmacokinetics); format: in vivo, male nude mice; settings: mice, tail vein
From the text: The PET images were reconstructed using the Maximum Likelihood Expectation Maximization method with 12 iterations. The CT images were reconstructed using the Filtered Back Projection method. Scatter, randoms, decay, and attenuation corrections were applied through the Albira software. Volumes-of-interest (VOIs) were drawn for the major organs on the decay-corrected PET images using PMOD, and injected doses were used to calculate percent of injected dose per cubic centimeter of tissue (%ID/cc). Errors in the averaged %ID/cc were reported as standard error of the mean (SEM). A non-linear regression analysis of the dynamic PET data for both C60-[^64Cu]Cu(NOTA) and [^64Cu]Cu(NOTA) was performed and fitted to a two-phase decay model to determine the blood half-life of each compound.
We also performed a non-linear regression analysis of the heart TAC data of both compounds using a two-phase decay model, which produced a p value of < 0.0001 by an extra sum-of-squares F test. The two-phase decay model consists of a distribution phase and an elimination phase. The fast distribution phase describes the rapid circulation of the material from the plasma to highly-perfused tissues, and the slow elimination phase describes the clearance of the material from the plasma and tissues through excretion. From this analysis, a blood half-life (t1/2) and rate constants (α, β) for each phase were determined along with the clearance rate (CL) and the area under the curve (AUC), which represents a normalized volume of distribution (Table 1).

**Q.** Which results are given for `O=C([O-])CN1CCN(CC(=O)[O-])CCN(CC(=O)O)CC1.[64Cu+2]` [[^64Cu]Cu(NOTA)]?
**A.** period in which most of the material was cleared by renal excretion ([1]; PET): between 20 min and 3 h p.i.; uptake / detected signal at 48 h p.i. ([1]; PET static scan, 48 h p.i., any organ): negligible; uptake in the kidneys compared to other major organs ([1]; PET, 20 min p.i.): significant uptake; Area under Curve (AUC) [2]: 3.173 × 10^2 %ID·min/cc; Distribution Half-Life [2]: 0.4975 min; Distribution Rate Constant (α) [2]: 1.393 min⁻¹; Elimination Half-Life [2]: 8.153 min; Elimination Rate Constant (β) [2]: 0.08501 min⁻¹
